Assay results taken from publication PMC9760738, “Pharmacokinetics, absorption, distribution, metabolism and excretion of the MEK inhibitor zapnometinib in rats” (Frontiers in Pharmacology, 2022).
pIC50: −log10 of the molar value. Read-outs that look alike come from different tables or passages of the source.

Tests used:
[1] = system: MEK; parameters: method as in Lorusso et al., 2005; settings: ref Lorusso et al., 2005; read-out: 50% inhibitory concentration (IC50); cited from earlier work
[2] = parameters: method as in Wabnitz et al., 2004; settings: rat; ref Wabnitz et al., 2004; cited from earlier work
[3] = parameters: method as in Wabnitz et al., 2004; settings: monkey; ref Wabnitz et al., 2004; cited from earlier work
[4] = Metabolite profiling of plasma extracts by radio-HPLC (Group 3); format: in vivo, rat; settings: male plasma
Protocol: (§1) Metabolite profiling was performed by HPLC analysis according to the company’s SOP of plasma (Group 3), urine (Group 2) and feces (Group 2) samples. Briefly, for metabolite profiling and identification, radioactivity (cpm) was measured in HPLC eluent fractions that had previously been collected at 12 s intervals for the duration of the run (65 min) into 96-well Deep Well LumaPlates and dried in a centrifugal evaporator. A Microbeta2 scintillation counter was used to count each plate, with wells simultaneously counted for 2 min, after an initial 5 min delay. A subsample of plasma was analyzed (ca 2 ml) taken from individual animals to provide representative samples, for each sex, at 2, 8 and 168 h post dose (n = 6). Equal proportions of the total urine weight voided from Group 2 animals was pooled to provide representative samples for each sex at 0–6 h, 6–24 h and 24–48 h post dose (n = 6). Equal proportions of the total feces homogenate generated from the samples voided by the three rats (Group 2) were pooled to provide representative samples for each sex at 0–24 and 24–48 h post dose ([…]). Sample preparation was carried out due to the company’s SOPs (see Supplementary Methods). The extractability was ≥95.0% (95.0–100%) TRR (Total Radioactive Residue) for plasma and ≥88.3% (88.3%–91.3%) TRR for feces. As reference, a standard solution of zapnometinib (0.1 mg/ml in acetonitrile) was used. To assess HPLC method suitability, a column recovery was assessed on each representative sample (one per matrix). The recovery of radioactivity from the HPLC column was determined by collecting the column eluent, following an injection of a representative sample (one per matrix), and determining the radioactive content by submitting aliquots for LSC analysis. The results of these analyses were between 93.8%–105.1% column recoveries.
(§2) Next, radioactive metabolic components of zapnometinib in urine, plasma and feces extracts were isolated and profiled. The components were quantified by fraction collection/scintillation analysis, as appropriate to the radioactivity concentrations. Mass spectroscopy was used to propose identities of the major circulatory and excreted metabolites, and to correlate the metabolites detected in the different matrices. Components identified by LC-MS/MS were related to the quantified HPLC analysis by comparison of related radiochromatograms and comparison of elution order. Representative HPLC radiochromatograms of pooled feces extracts collected during 0–24 and 24–48 h post dose from male and female rats (which reveal the main metabolites) were qualitatively similar with some minor sex differences (Figure 3).

[5] = Metabolite profiling of pooled feces extracts by radio-HPLC (Group 2); format: in vivo, rat
Protocol: as §1
as §2, with “3). […]” for “3).”
times with the following solvents following the same procedure: Extract 2 – Acetonitrile/methanol 4:1 (v/v); Extract 3 – Acetonitrile/Water 1:1 (v/v). Duplicate weighed aliquots of each supernatant (ca 0.1 mL) were mixed directly with Ultima Gold scintillation cocktail for measurement of radioactivity concentrations. The extracted residue was allowed to air dry and the total weight was recorded. Duplicate weighed portions (ca 0.05g) were taken for radioassay after oxidation. The extracts were combined and concentrated under a constant stream of nitrogen gas to near dryness and reconstituted in acetonitrile/0.1% aqueous formic acid, 1:1 (v/v) by vortex mixing, sonication and centrifugation at 10000 × g for 5 min at 4°C.
The concentrates were weighed, and duplicate weighed aliquots (0.025 – 0.05 mL) taken for measurement of radioactivity to calculate recovery following concentration. An aliquot of each concentrated extract was injected into the HPLC. […]
(100 mL) in purified water (600 mL) and methanol (300 mL). After measurement of total sample weight (as appropriate), replicate portions of diluted dose solutions (ca 0.1 mL), plasma (ca 0.05 – 0.25 mL), urine (ca 0.05 – 0.25 mL), expired air trap solution (ca 1 mL) and cage wash (ca 1 mL) were mixed directly with Ultima Gold scintillation cocktail (5 mL; 15 mL for […]

| Amount detected in plasma by mass spectrometry [4] | Amount in pooled feces extracts ([5]; 0-24 hours, female rats) | Amount in pooled feces extracts ([5]; 0-24 hours, male rats) | Amount in pooled feces extracts ([5]; 24-48 hours, female rats) | Amount in pooled feces extracts ([5]; Total (0-48 hours), female rats) | Amount in pooled feces extracts ([5]; Total (0-48 hours), male rats) | Compound | pIC50 [1] | Renal elimination [2] | Renal elimination [3] |
| --- | --- | --- | --- | --- | --- | --- | --- | --- | --- |
|  |  |  |  |  |  | O=C(NOCC1CC1)c1ccc(F)c(F)c1Nc1ccc(I)cc1Cl [CI-1040, 2-(2-chloro-4-iodo-phenylamino)-Ncyclopropylmethoxy-3,4-difluoro-benzamide] | […] | < 5 % of dose | < 5 % of dose |
| trace amounts | 16.10 % Dose | 4.21 % Dose | 2.48 % Dose | 18.58 % Dose | 4.21 % Dose | CC(C)[C@H](NC(=O)c1ccc(F)c(F)c1Nc1ccc(I)cc1Cl)C(=O)O [M3] |  |  |  |
